Experimental data published in ChEMBL document CHEMBL3091292, “Towards tropomyosin-related kinase B (TrkB) receptor ligands for brain imaging with PET: radiosynthesis and evaluation of 2-(4-[(18)F]fluorophenyl)-7,8-dihydroxy-4H-chromen-4-one and 2-(4-([N-methyl-(11)C]-dimethylamino)phenyl)-7,8-dihydroxy-4H-chromen-4-one” (Bioorg Med Chem, 2013).
Each block holds one compound with its values, some of them ahead of it.

Experiments:
Brain = experiment: Biodistribution in Sprague-Dawley rat brain assessed as drug level per body weight at 230 to 876 uCi, iv after 60 mins by PET imaging analysis; format: ADME, organism-based; conditions: in vivo, 1 h
[1] = Octanol-phosphate buffered saline partition coefficient, log D of the compound at pH 7.4 by shake-flask method; format: physicochemical
[2] = Plasma protein binding in rat after 15 mins; format: ADME, cell-free; conditions: read-out: PPB (converted)
[3] = Half life in rat plasma by HPLC analysis; format: ADME, cell-free
Rattus norvegicus [4] = experiment: Biodistribution in Sprague-Dawley rat whole brain assessed as drug level per body weight at 230 to 876 uCi, iv after 30 mins by PET imaging analysis; format: ADME, organism-based; conditions: in vivo, 0.5 h
Kidney = experiment: Biodistribution in Sprague-Dawley rat kidney assessed as drug level per body weight at 230 to 876 uCi, iv after 60 mins by PET imaging analysis; format: ADME, organism-based; conditions: in vivo, 1 h
Liver = experiment: Biodistribution in Sprague-Dawley rat liver assessed as drug level per body weight at 230 to 876 uCi, iv after 120 mins by PET imaging analysis; format: ADME, organism-based; conditions: in vivo, 2 h
Aorta = experiment: Biodistribution in Sprague-Dawley rat aorta assessed as drug level per body weight at 230 to 876 uCi, iv after 30 mins by PET imaging analysis; format: ADME, organism-based; conditions: in vivo, 0.5 h
Cerebellum [5] = experiment: Biodistribution in rat cerebellum after 65 mins by autoradiography relative to control in presence of BDNF; format: ADME, organism-based; conditions: in vivo
Thalamus [6] = experiment: Biodistribution in rat thalamus after 65 mins by autoradiography relative to control in presence of BDNF; format: ADME, organism-based; conditions: in vivo
Hippocampus [7] = experiment: Biodistribution in rat hippocampus after 65 mins by autoradiography relative to control in presence of BDNF; format: ADME, organism-based; conditions: in vivo
Cortex [8] = experiment: Biodistribution in rat cortex after 65 mins by autoradiography relative to control in presence of BDNF; format: ADME, organism-based; conditions: in vivo
Striatum [9] = experiment: Biodistribution in rat striatum after 65 mins by autoradiography relative to control in presence of BDNF; format: ADME, organism-based; conditions: in vivo
Cerebellum [10] = experiment: Biodistribution in rat cerebellum after 65 mins by autoradiography relative to control in presence of 7,8-dihydroxyflavone; format: ADME, organism-based; conditions: in vivo
Thalamus [11] = experiment: Biodistribution in rat thalamus after 65 mins by autoradiography relative to control in presence of 7,8-dihydroxyflavone; format: ADME, organism-based; conditions: in vivo
Hippocampus [12] = experiment: Biodistribution in rat hippocampus after 65 mins by autoradiography relative to control in presence of 7,8-dihydroxyflavone; format: ADME, organism-based; conditions: in vivo
Striatum [13] = experiment: Biodistribution in rat striatum after 65 mins by autoradiography relative to control in presence of 7,8-dihydroxyflavone; format: ADME, organism-based; conditions: in vivo
Cortex [14] = experiment: Biodistribution in rat cortex after 65 mins by autoradiography relative to control in presence of 7,8-dihydroxyflavone; format: ADME, organism-based; conditions: in vivo
Cerebellum [15] = experiment: Biodistribution in rat cerebellum after 65 mins by autoradiography; format: ADME, organism-based; conditions: in vivo
Hippocampus [16] = experiment: Biodistribution in rat hippocampus after 65 mins by autoradiography; format: ADME, organism-based; conditions: in vivo
Thalamus [17] = experiment: Biodistribution in rat thalamus after 65 mins by autoradiography; format: ADME, organism-based; conditions: in vivo
Rattus norvegicus [18] = organism: Rattus norvegicus; experiment: Biodistribution in rat caudate putamen after 65 mins by autoradiography; format: ADME, organism-based; conditions: in vivo
Cerebral cortex = experiment: Biodistribution in rat cerebral cortex after 65 mins by autoradiography; format: ADME, organism-based; conditions: in vivo
[19] = Drug degradation in rat plasma after 90 mins by HPLC analysis; format: ADME, cell-free; conditions: read-out: Drug degradation
[20] = target: BDNF/NT-3 growth factors receptor (Homo sapiens, UniProt Q16620); experiment: Binding affinity to TrkB receptor extracellular domain (unknown origin) after 10 mins by liquid Scatchard plot analysis
Sequence of BDNF/NT-3 growth factors receptor (Q16620 whole entry, the tested form may be a part): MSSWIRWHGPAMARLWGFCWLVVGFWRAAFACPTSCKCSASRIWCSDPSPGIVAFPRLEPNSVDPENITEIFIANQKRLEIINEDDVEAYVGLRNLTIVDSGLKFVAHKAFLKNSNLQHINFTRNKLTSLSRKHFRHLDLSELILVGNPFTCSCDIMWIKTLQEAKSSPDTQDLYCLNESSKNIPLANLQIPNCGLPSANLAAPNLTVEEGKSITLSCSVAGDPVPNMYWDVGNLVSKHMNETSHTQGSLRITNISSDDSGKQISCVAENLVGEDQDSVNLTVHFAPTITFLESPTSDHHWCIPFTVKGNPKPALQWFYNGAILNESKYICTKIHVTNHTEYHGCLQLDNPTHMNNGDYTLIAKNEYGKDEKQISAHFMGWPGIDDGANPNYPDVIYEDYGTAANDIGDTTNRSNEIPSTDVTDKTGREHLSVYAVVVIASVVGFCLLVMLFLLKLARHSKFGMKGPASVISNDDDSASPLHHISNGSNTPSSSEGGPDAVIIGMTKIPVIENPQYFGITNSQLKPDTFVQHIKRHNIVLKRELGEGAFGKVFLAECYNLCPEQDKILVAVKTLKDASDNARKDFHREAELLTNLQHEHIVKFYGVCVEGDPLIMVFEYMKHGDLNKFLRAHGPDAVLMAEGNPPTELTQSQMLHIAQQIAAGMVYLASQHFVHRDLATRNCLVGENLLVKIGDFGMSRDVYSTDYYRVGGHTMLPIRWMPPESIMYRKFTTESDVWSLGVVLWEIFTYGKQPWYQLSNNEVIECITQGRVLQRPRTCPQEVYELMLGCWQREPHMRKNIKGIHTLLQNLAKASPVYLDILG

logD [1]: 2.8
fraction unbound at 0.25 h [2]: 0.81
half-life [3]: 10 min
SMILES: CN([11CH3])c1ccc(-c2cc(=O)c3ccc(O)c(O)c3o2)cc1
SUV (Brain): 0.7

Drug uptake (Cerebellum [5]): 12%
Drug uptake (Thalamus [6]): 11%
Drug uptake (Hippocampus [7]): 10%
Drug uptake (Cortex [8]): 16%
Drug uptake (Striatum [9]): 14%
Drug uptake (Cerebellum [10]): 23%
Drug uptake (Thalamus [11]): 19%
Drug uptake (Hippocampus [12]): 18%
Drug uptake (Striatum [13]): 21%
Drug uptake (Cortex [14]): 17%
Drug uptake (Cerebellum [15]): Active
Drug uptake (Hippocampus [16]): Active
Drug uptake (Thalamus [17]): Active
Drug uptake (Rattus norvegicus [18]): Active
Drug uptake (Cerebral cortex): Active
logD [1]: 2.2
fraction unbound at 0.25 h [2]: 0.76
metabolised at 1.5 h [19]: 10%
SMILES: O=c1cc(-c2ccc([18F])cc2)oc2c(O)c(O)ccc12
SUV (Rattus norvegicus [4]): 0.64
SUV (Kidney): 4.38
SUV (Liver): 6.8
SUV (Aorta): 6.62

Kd [20]: 320 nM
SMILES: O=c1cc(-c2ccccc2)oc2c(O)c(O)ccc12 [7,8-DIHYDROXYFLAVONE]
